# Test results from US5534522A, “(R)-(Z)-1-azabicyclo [2.2.1] heptan-3-one,O-[3-(3-methoxyphenyl)-2-propynyl] oxime maleate as a pharmaceutical agent” (Warner-Lambert Company, priority 1995, dated 1996).
# Where a name gives a salt, the structure may show the parent alone. Read-outs that look alike come from different tables or passages of the source.
# Legend:
# [1] = Evaluation of acid addition salts (ease of formation and crystallinity); assay type: physicochemical; settings: for Overall Salt Rating: based on ease of formation and crystallinity, salt of 1a (free base treated with acid); for isomer formation on recrystallization (words): EtOAc in Table III
# Method: Many counter-ions were evaluated for salt-forming properties. The data presented in Table III answer the following questions: (1) did a solid salt precipitate from ether when free base 1a was treated with each acid?; (2) following collection of the salt by either filtration or evaporation of the ether, what solvents were used to crystallize the salt, and was a crystalline salt obtained from each solvent?; (3) melting point information; and (4) overall rating of each salt, based on considerations of ease of formation and crystallinity.
# [2] = test system: hippocampally deficient mice; assay type: in vivo, mouse
# Text: This test measures the ability of a compound to decrease the amount of time needed by the mice to find a hidden platform in the water pool.
# The graph represents two sets of experiments, each one with its own control group.
# [3] = Stability of crystalline salts of 1a under accelerated stability conditions; assay type: physicochemical
# Text: Maleate and benzoate salts were recrystallized from ethyl acetate and t-butyl methyl ether, respectively. Xenon exposure with the Atlas SunChex set for 0.4±0.1 watts/m^2. Fluorescent exposure with 1000-±100-ft candles.
# [4] = Aqueous solubility of crystalline salts of 1a; assay type: physicochemical; settings: for solubility: water, room temp.
# [5] = Hygroscopicity of salts of Compound 1a; assay type: physicochemical; settings: for Hygroscopicity (% wt increase): RT, 81% RH for 16 days, crimped DSC pans; for moisture uptake / hygroscopicity in words: salts of Table IV
# [6] = test system: rat cerebral cortex muscarinic receptors; settings: earlier publications, cited from earlier work
# [7] = test system: m1-subtype muscarinic receptors; settings: cited from earlier work
# [8] = biological target: rat cerebral cortex muscarinic receptors; settings: Table I; read-out: QNB Binding IC50
# [9] = test system: rat cerebral cortex muscarinic receptors; assay: Muscarinic receptor binding, CMD (cis-methyldioxolane) agonist radioligand; settings: for IC50: Table I
# [10] = Refrigerated storage stability of free base; assay type: physicochemical; settings: refrigerated at -4° C., up to several days
# [11] = Xenon, 26 hours, 0.4±0.1 watts/m^2
# [12] = 1a versus isomer 1b, Tables II and III of Jaen reference
smiles,measurement,setting,value
COc1cccc(C#CCO/N=C2\CN3CC[C@@H]2C3)c1 [Fumarate (1 equi)],Overall Salt Rating,[1],Low
"Nc1c2c(nc3ccccc13)CCCC2 [tacrine, reference compound]","latency improvement, tacrine control group",[2]; tacrine in the maleate set of experiments,24 s
same,"improvement of time to find the platform, positive control",[2]; tacrine in the oxalate set of experiments,~27 s
"COc1cccc(C#CCO/N=C2\CN3CC[C@@H]2C3)c1 [Maleate, (R)-(Z)-1-azabicyclo[2.2.1]heptan-3-one,O-[3-(3-methoxyphenyl)-2-propynyl]oxime, (Z)-butenedioic acid, [1:1 salt]]",Stability to light: presence of 1c,"[3]; Fluorescence, 5.5 months, 1000-±100-ft candles",.largecircle.
same,Stability to light: presence of 1c,[3]; [11],.largecircle.
same,latency improvement,"[2]; 1 mg/kg, separate set of experiments (maleate)",about 20 seconds
same,biological activity compared to other salts,[2]; water maze,no loss of biological activity
same,solubility in water relative to 1a benzoate,[4]; 1a maleate versus 1a benzoate,about 15 times
same,solubility,[4],89 mg/mL
same,Hygroscopicity (% wt increase),[5],0.32 ± 0.02 % wt
same,moisture uptake / hygroscopicity in words,[5],the least
COc1cccc(C#CCO/N=C2\CN3CC[C@@H]2C3)c1 [Tartrate (D)-(-) (1 equi)],Overall Salt Rating,[1],Low
COc1cccc(C#CCON=C2CN3CCC2C3)c1 (centres unmarked) [Compound 1],affinity to rat cerebral cortex muscarinic receptors,[6]; rat cerebral cortex,high affinity
same,ability to displace agonist radioligand (cis-methyldioxolane) at lower concentrations than those required to displace antagonist radioligand (quinuclidinyl benzilate),[6]; ratio QNB/CMD,246 times
same,selective stimulation of m1-subtype muscarinic receptors,"[7]; versus other non-m1 muscarinic receptors, earlier publications",selectively stimulate m1-subtype muscarinic receptors without significant stimulation of other non-m1 muscarinic receptors
COc1cccc(C#CCO/N=C2\CN3CC[C@@H]2C3)c1 [Oxalate],reduction of time required to find the platform,"[2]; 1 mg/kg, first set of experiments (oxalate)",about 18 seconds
same,Hygroscopicity (% wt increase),[5],6.38 ± 1.40 % wt
same,moisture uptake / hygroscopicity in words,[5]; listed as oxalate salt,less hygroscopic than the hydrochloride
COc1cccc(C#CCO/N=C2\CN3CC[C@@H]2C3)c1 [Tartrate (L)-(+) (0.5 equi)],Overall Salt Rating,[1],Low
COc1cccc(C#CCO/N=C2\CN3CC[C@H]2C3)c1 [Compound 1b],muscarinic agonist activity,"[7]; isomer 1b, could be due to small amounts of 1a",small amount of activity
COc1cccc(C#CCO/N=C2\CN3CC[C@@H]2C3)c1 [Stearate],Overall Salt Rating,[1],Low
COc1cccc(C#CCO/N=C2\CN3CC[C@@H]2C3)c1 [ethyl acetate recrystallized maleate salt],stability compared with ether-precipitated product,[3]; ethyl acetate recrystallized versus ether-precipitated,more stable
COc1cccc(C#CCO/N=C2\CN3CC[C@@H]2C3)c1 [Hydrochloride],Overall Salt Rating,[1],High
same,isomer formation on recrystallization (words),[1],E-Isomer Formation
same,isomer formation on recrystallization (words),[1]; listed as hydrochloride,difficult to recrystallize without converting 1a to 1c
same,Hygroscopicity (% wt increase),[5],27.77 ± 0.40 % wt
same,moisture uptake / hygroscopicity in words,[5]; listed as HCl salt,took up water most rapidly and to the greatest extent
same,moisture uptake / hygroscopicity in words,[5]; listed as hydrochloride salt,extremely hygroscopic
COc1cccc(C#CCO/N=C2\CN3CC[C@@H]2C3)c1 [ether-precipitated product],physical state under accelerated stability condition,"[3]; 2 weeks, 40° C./75% RH",deliquescent
CCCC(=O)O.COc1cccc(C#CCON=C2CN3CCC2C3)c1 (centres unmarked),Overall Salt Rating,[1],Low
COc1cccc(C#CCO/N=C2\CN3CC[C@@H]2C3)c1 [Tartrate (D)-(-) (0.5 equi)],Overall Salt Rating,[1],Low
"COc1cccc(C#CCO/N=C2\CN3CC[C@@H]2C3)c1 [Compound 1a, [R-(Z)]-1-azabicyclo [2.2.1]heptan-3-one, O-[3-(3-methoxyphenyl)-2-propynyl]oxime]",IC50,[8],5.3 µM
same,potency and efficacy as a muscarinic agonist (ratio of QNB to CMD binding),[9]; 1a versus mixture of 1c/1d,more potent and more efficacious as a muscarinic agonist
same,IC50,[9],0.025 µM
same,m1 potency,[7]; [12],greater m1 potency than isomer 1b
same,m1 receptor subtype selectivity,[7]; [12],greater m1 receptor subtype selectivity
same,decomposition or isomerization to 1c on storage,[10],without noticeable decomposition or isomerization to produce 1c
COc1cccc(C#CCO/N=C2/CN3CCC2C3)c1 (centres unmarked) [(1c + 1d)],IC50,[8],14.8 µM
same,IC50,[9],0.15 µM
COc1cccc(C#CCO/N=C2\CN3CC[C@@H]2C3)c1 [L(+)-Lactate],Overall Salt Rating,[1],Low
COc1cccc(C#CCO/N=C2\CN3CC[C@@H]2C3)c1 [Fumarate (0.5 epui)],Overall Salt Rating,[1],Medium
COc1cccc(C#CCO/N=C2\CN3CC[C@@H]2C3)c1 [Hydrobromide],Overall Salt Rating,[1],Low
same,hygroscopicity of precipitated salt,[1]; precipitation from Et2O,very hygroscopic
COc1cccc(C#CCO/N=C2\CN3CC[C@@H]2C3)c1 [Acetate],Overall Salt Rating,[1],Low
COc1cccc(C#CCO/N=C2\CN3CC[C@@H]2C3)c1 [Benzoate],stability in words,[3]; 25° C./60% RH and 30° C./60% RH,stable
same,Stability: presence of 1c,"[3]; 30° C./60% RH, 2 weeks",.largecircle.
same,Stability to light: presence of 1c,[3]; [11],E (presence of 2%-4% 1c)
same,solubility,[4],6 mg/mL
same,Overall Salt Rating,[1],High
COc1cccc(C#CCO/N=C2\CN3CC[C@@H]2C3)c1 [Benzene Sulfonae Sulphonate],Overall Salt Rating,[1],Low
COc1cccc(C#CCO/N=C2\CN3CC[C@@H]2C3)c1 [Malate],Overall Salt Rating,[1],Low
COc1cccc(C#CCO/N=C2\CN3CC[C@@H]2C3)c1 [Succinate],Overall Salt Rating,[1],Low
COc1cccc(C#CCO/N=C2\CN3CC[C@@H]2C3)c1 [Tartrate (L)-(+) (1 equi)],Overall Salt Rating,[1],Low
